Measured values as given in patent publication US6960574B2, “Antagonists of RF-amide neuropeptides” (University of Florida, priority 2002, dated 2005).
Peptide text beside a SMILES is read from it. * marks the point of attachment. Dansyl = CN(C)c1cccc2c(S(=O)(=O)*)cccc12

system: receptor labeled by the radioiodinated analogue of 1 (4, [125I]-YLFQPQRF-NH2); neuropeptide FF receptor; assay: Competitive radioligand binding against 4 ([125I]Y8F-amide); details: mixture-based positional scanning; difference from averaged radioligand displacement of whole library (0); about 80 a.u. = 10-fold change in Ki

SMILES	Relative Binding Index (RBI) [a.u.]
CN(C)c1cccc2c(S(=O)(=O)N[C@@H](CCC(N)=O)C(=O)N[C@@H](CCC(N)=O)C(=O)N[C@@H](CCCNC(=N)N)C(N)=O)cccc12 [Dansyl-QQR-amide, dansyl-Gln-Gln-Arg-NH2] (Dansyl-Gln-Gln-Arg-NH2)	35
CN(C)c1cccc2c(S(=O)(=O)N[C@@H](CCC(N)=O)C(=O)N[C@@H](CCCNC(=N)N)C(=O)N[C@@H](CCCNC(=N)N)C(N)=O)cccc12 [Dansyl-QRR-amide] (Dansyl-Gln-Arg-Arg-NH2)	20
CN(C)c1cccc2c(S(=O)(=O)N[C@@H](CCC(N)=O)C(=O)N[C@@H](CO)C(=O)N[C@@H](CCCNC(=N)N)C(N)=O)cccc12 [Dansyl-QSR-amide, dansyl-Gln-Ser-Arg-NH2] (Dansyl-Gln-Ser-Arg-NH2)	42
C[C@@H](O)[C@H](NC(=O)[C@H](CCC(N)=O)NS(=O)(=O)c1cccc2c(N(C)C)cccc12)C(=O)N[C@@H](CCCNC(=N)N)C(N)=O [Dansyl-QTR-amide] (Dansyl-Gln-Thr-Arg-NH2)	27
CC(C)[C@H](NC(=O)[C@H](CCC(N)=O)NS(=O)(=O)c1cccc2c(N(C)C)cccc12)C(=O)N[C@@H](CCCNC(=N)N)C(N)=O [Dansyl-QVR-amide] (Dansyl-Gln-Val-Arg-NH2)	17
CN(C)c1cccc2c(S(=O)(=O)N[C@@H](CCC(N)=O)C(=O)N[C@@H](Cc3c[nH]c4ccccc34)C(=O)N[C@@H](CCCNC(=N)N)C(N)=O)cccc12 [Dansyl-QWR-amide] (Dansyl-Gln-Trp-Arg-NH2)	30
CN(C)c1cccc2c(S(=O)(=O)N[C@@H](CCC(N)=O)C(=O)N[C@@H](Cc3ccc(O)cc3)C(=O)N[C@@H](CCCNC(=N)N)C(N)=O)cccc12 [Dansyl-QYR-amide] (Dansyl-Gln-Tyr-Arg-NH2)	20
C[C@H](NC(=O)[C@H](CCCNC(=N)N)NS(=O)(=O)c1cccc2c(N(C)C)cccc12)C(=O)N[C@@H](CCCNC(=N)N)C(N)=O [Dansyl-RAR-amide] (Dansyl-Arg-Ala-Arg-NH2)	−42
CN(C)c1cccc2c(S(=O)(=O)N[C@@H](CCCNC(=N)N)C(=O)N[C@@H](CC(=O)O)C(=O)N[C@@H](CCCNC(=N)N)C(N)=O)cccc12 [Dansyl-RDR-amide] (Dansyl-Arg-Asp-Arg-NH2)	−11
CN(C)c1cccc2c(S(=O)(=O)N[C@@H](CCCNC(=N)N)C(=O)N[C@@H](CCC(=O)O)C(=O)N[C@@H](CCCNC(=N)N)C(N)=O)cccc12 [Dansyl-RER-amide] (Dansyl-Arg-Glu-Arg-NH2)	7
CN(C)c1cccc2c(S(=O)(=O)N[C@@H](CCCNC(=N)N)C(=O)N[C@@H](Cc3ccccc3)C(=O)N[C@@H](CCCNC(=N)N)C(N)=O)cccc12 [Dansyl-RFR-amide] (Dansyl-Arg-Phe-Arg-NH2)	5
CN(C)c1cccc2c(S(=O)(=O)N[C@@H](CCCNC(=N)N)C(=O)NCC(=O)N[C@@H](CCCNC(=N)N)C(N)=O)cccc12 [Dansyl-RGR-amide] (Dansyl-Arg-Gly-Arg-NH2)	12
CN(C)c1cccc2c(S(=O)(=O)N[C@@H](CCCNC(=N)N)C(=O)N[C@@H](Cc3c[nH]cn3)C(=O)N[C@@H](CCCNC(=N)N)C(N)=O)cccc12 [Dansyl-RHR-amide] (Dansyl-Arg-His-Arg-NH2)	1
CC[C@H](C)[C@H](NC(=O)[C@H](CCCNC(=N)N)NS(=O)(=O)c1cccc2c(N(C)C)cccc12)C(=O)N[C@@H](CCCNC(=N)N)C(N)=O [Dansyl-RIR-amide] (Dansyl-Arg-Ile-Arg-NH2)	13
CN(C)c1cccc2c(S(=O)(=O)N[C@@H](CCCNC(=N)N)C(=O)N[C@@H](CCCCN)C(=O)N[C@@H](CCCNC(=N)N)C(N)=O)cccc12 [Dansyl-RKR-amide] (Dansyl-Arg-Lys-Arg-NH2)	4
CC(C)C[C@H](NC(=O)[C@H](CCCNC(=N)N)NS(=O)(=O)c1cccc2c(N(C)C)cccc12)C(=O)N[C@@H](CCCNC(=N)N)C(N)=O [Dansyl-RLR-amide]	−2
CSCC[C@H](NC(=O)[C@H](CCCNC(=N)N)NS(=O)(=O)c1cccc2c(N(C)C)cccc12)C(=O)N[C@@H](CCCNC(=N)N)C(N)=O [Dansyl-RMR-amide] (Dansyl-Arg-Met-Arg-NH2)	7
CN(C)c1cccc2c(S(=O)(=O)N[C@@H](CCCNC(=N)N)C(=O)N[C@@H](CC(N)=O)C(=O)N[C@@H](CCCNC(=N)N)C(N)=O)cccc12 [Dansyl-RNR-amide] (Dansyl-Arg-Asn-Arg-NH2)	8
CN(C)c1cccc2c(S(=O)(=O)N[C@@H](CCCNC(=N)N)C(=O)N3CCC[C@H]3C(=O)N[C@@H](CCCNC(=N)N)C(N)=O)cccc12 [Dansyl-RPR-amide] (Dansyl-Arg-Pro-Arg-NH2)	10
CN(C)c1cccc2c(S(=O)(=O)N[C@@H](CCCNC(=N)N)C(=O)N[C@@H](CCC(N)=O)C(=O)N[C@@H](CCCNC(=N)N)C(N)=O)cccc12 [Dansyl-RQR-amide] (Dansyl-Arg-Gln-Arg-NH2)	20

SMILES	Relative Binding Index (RBI) [a.u.]
CN(C)c1cccc2c(S(=O)(=O)N[C@@H](CCCNC(=N)N)C(=O)N[C@@H](CCCNC(=N)N)C(=O)N[C@@H](CCCNC(=N)N)C(N)=O)cccc12 [Dansyl-RRR-amide] (Dansyl-Arg-Arg-Arg-NH2)	5
CN(C)c1cccc2c(S(=O)(=O)N[C@@H](CCCNC(=N)N)C(=O)N[C@@H](CO)C(=O)N[C@@H](CCCNC(=N)N)C(N)=O)cccc12 [Dansyl-RSR-amide] (Dansyl-Arg-Ser-Arg-NH2)	27
C[C@@H](O)[C@H](NC(=O)[C@H](CCCNC(=N)N)NS(=O)(=O)c1cccc2c(N(C)C)cccc12)C(=O)N[C@@H](CCCNC(=N)N)C(N)=O [Dansyl-RTR-amide] (Dansyl-Arg-Thr-Arg-NH2)	12
CC(C)[C@H](NC(=O)[C@H](CCCNC(=N)N)NS(=O)(=O)c1cccc2c(N(C)C)cccc12)C(=O)N[C@@H](CCCNC(=N)N)C(N)=O [Dansyl-RVR-amide] (Dansyl-Arg-Val-Arg-NH2)	2
CN(C)c1cccc2c(S(=O)(=O)N[C@@H](CCCNC(=N)N)C(=O)N[C@@H](Cc3c[nH]c4ccccc34)C(=O)N[C@@H](CCCNC(=N)N)C(N)=O)cccc12 [Dansyl-RWR-amide] (Dansyl-Arg-Trp-Arg-NH2)	16
CN(C)c1cccc2c(S(=O)(=O)N[C@@H](CCCNC(=N)N)C(=O)N[C@@H](Cc3ccc(O)cc3)C(=O)N[C@@H](CCCNC(=N)N)C(N)=O)cccc12 [Dansyl-RYR-amide] (Dansyl-Arg-Tyr-Arg-NH2)	6
C[C@H](NC(=O)[C@H](CO)NS(=O)(=O)c1cccc2c(N(C)C)cccc12)C(=O)N[C@@H](CCCNC(=N)N)C(N)=O [Dansyl-SAR-amide] (Dansyl-Ser-Ala-Arg-NH2)	−33
CN(C)c1cccc2c(S(=O)(=O)N[C@@H](CO)C(=O)N[C@@H](CC(=O)O)C(=O)N[C@@H](CCCNC(=N)N)C(N)=O)cccc12 [Dansyl-SDR-amide] (Dansyl-Ser-Asp-Arg-NH2)	−2
CN(C)c1cccc2c(S(=O)(=O)N[C@@H](CO)C(=O)N[C@@H](CCC(=O)O)C(=O)N[C@@H](CCCNC(=N)N)C(N)=O)cccc12 [Dansyl-SER-amide] (Dansyl-Ser-Glu-Arg-NH2)	16
CN(C)c1cccc2c(S(=O)(=O)N[C@@H](CO)C(=O)N[C@@H](Cc3ccccc3)C(=O)N[C@@H](CCCNC(=N)N)C(N)=O)cccc12 [Dansyl-SFR-amide] (Dansyl-Ser-Phe-Arg-NH2)	15
CN(C)c1cccc2c(S(=O)(=O)N[C@@H](CO)C(=O)NCC(=O)N[C@@H](CCCNC(=N)N)C(N)=O)cccc12 [Dansyl-SGR-amide] (Dansyl-Ser-Gly-Arg-NH2)	22
CN(C)c1cccc2c(S(=O)(=O)N[C@@H](CO)C(=O)N[C@@H](Cc3c[nH]cn3)C(=O)N[C@@H](CCCNC(=N)N)C(N)=O)cccc12 [Dansyl-SHR-amide] (Dansyl-Ser-His-Arg-NH2)	11
CC[C@H](C)[C@H](NC(=O)[C@H](CO)NS(=O)(=O)c1cccc2c(N(C)C)cccc12)C(=O)N[C@@H](CCCNC(=N)N)C(N)=O [Dansyl-SIR-amide] (Dansyl-Ser-Ile-Arg-NH2)	23
CN(C)c1cccc2c(S(=O)(=O)N[C@@H](CO)C(=O)N[C@@H](CCCCN)C(=O)N[C@@H](CCCNC(=N)N)C(N)=O)cccc12 [Dansyl-SKR-amide] (Dansyl-Ser-Lys-Arg-NH2)	14
CC(C)C[C@H](NC(=O)[C@H](CO)NS(=O)(=O)c1cccc2c(N(C)C)cccc12)C(=O)N[C@@H](CCCNC(=N)N)C(N)=O [Dansyl-SLR-amide] (Dansyl-Ser-Leu-Arg-NH2)	8
CSCC[C@H](NC(=O)[C@H](CO)NS(=O)(=O)c1cccc2c(N(C)C)cccc12)C(=O)N[C@@H](CCCNC(=N)N)C(N)=O [Dansyl-SMR-amide] (Dansyl-Ser-Met-Arg-NH2)	16
CN(C)c1cccc2c(S(=O)(=O)N[C@@H](CO)C(=O)N[C@@H](CC(N)=O)C(=O)N[C@@H](CCCNC(=N)N)C(N)=O)cccc12 [Dansyl-SNR-amide] (Dansyl-Ser-Asn-Arg-NH2)	18
CN(C)c1cccc2c(S(=O)(=O)N[C@@H](CO)C(=O)N3CCC[C@H]3C(=O)N[C@@H](CCCNC(=N)N)C(N)=O)cccc12 [Dansyl-SPR-amide] (Dansyl-Ser-Pro-Arg-NH2)	20
CN(C)c1cccc2c(S(=O)(=O)N[C@@H](CO)C(=O)N[C@@H](CCC(N)=O)C(=O)N[C@@H](CCCNC(=N)N)C(N)=O)cccc12 [Dansyl-SQR-amide] (Dansyl-Ser-Gln-Arg-NH2)	30
CN(C)c1cccc2c(S(=O)(=O)N[C@@H](CO)C(=O)N[C@@H](CCCNC(=N)N)C(=O)N[C@@H](CCCNC(=N)N)C(N)=O)cccc12 [Dansyl-SRR-amide] (Dansyl-Ser-Arg-Arg-NH2)	15
